Measurements reported in ChEMBL document CHEMBL4004838, “Design and synthesis of novel phenyl -1, 4-beta-carboline-hybrid molecules as potential anticancer agents” (Eur J Med Chem, 2017).

Each compound was assayed on SK-MEL-5 (assay: Growth inhibition of human SK-MEL-5 cells assessed as cell growth at 10^-5 M incubated for 48 hrs by sulforhodamine B assay relative to control). Details: SK-MEL-5, 48 h, read-out: Activity.
Assay type: functional

SMILES | growth at 10 µM [%]
O=Cc1ccc(C2NCCc3c2[nH]c2ccccc32)cc1 (stereo not given) | 93

Each compound was assayed on RXF 393 (assay: Growth inhibition of human RXF393 cells assessed as cell growth at 10^-5 M incubated for 48 hrs by sulforhodamine B assay relative to control). Details: RXF 393, 48 h, read-out: Activity.
Assay type: functional

SMILES | growth at 10 µM [%]
O=Cc1ccc(C2NCCc3c2[nH]c2ccccc32)cc1 (stereo not given) | 99.6

These compounds were tested on SW-620 (assay: Growth inhibition of human SW620 cells assessed as cell growth at 10^-5 M incubated for 48 hrs by sulforhodamine B assay relative to control). Details: SW-620, 48 h, read-out: Activity.
Assay type: functional

SMILES | growth at 10 µM [%]
O=Cc1ccc(C2NCCc3c2[nH]c2ccccc32)cc1 (stereo not given) | 88.8

Each compound was assayed on SK-OV-3 (assay: Growth inhibition of human SKOV3 cells assessed as cell growth at 10^-5 M incubated for 48 hrs by sulforhodamine B assay relative to control). Details: SK-OV-3, 48 h, read-out: Activity.
Assay type: functional

SMILES | growth at 10 µM [%]
O=Cc1ccc(C2NCCc3c2[nH]c2ccccc32)cc1 (stereo not given) | 88.2

Each compound was assayed on SK-MEL-28 (assay: Growth inhibition of human SK-MEL-28 cells assessed as cell growth at 10^-5 M incubated for 48 hrs by sulforhodamine B assay relative to control). Details: SK-MEL-28, 48 h, read-out: Activity.
Assay type: functional

SMILES | growth at 10 µM [%]
O=Cc1ccc(C2NCCc3c2[nH]c2ccccc32)cc1 (stereo not given) | 109

These compounds were tested on PC-3 (assay: Growth inhibition of human PC3 cells assessed as cell growth at 10^-5 M incubated for 48 hrs by sulforhodamine B assay relative to control). Details: PC-3, 48 h, read-out: Activity.
Assay type: functional

SMILES | growth at 10 µM [%]
O=Cc1ccc(C2NCCc3c2[nH]c2ccccc32)cc1 (stereo not given) | 84.3

The compounds below were run on NCI-H522 (assay: Growth inhibition of human NCI-H522 cells assessed as cell growth at 10^-5 M incubated for 48 hrs by sulforhodamine B assay relative to control). Details: NCI-H522, 48 h, read-out: Activity.
Assay type: functional

SMILES | growth at 10 µM [%]
O=Cc1ccc(C2NCCc3c2[nH]c2ccccc32)cc1 (stereo not given) | 88

What follows are compounds tested on CAKI-1 (assay: Growth inhibition of human Caki1 cells assessed as cell growth at 10^-5 M incubated for 48 hrs by sulforhodamine B assay relative to control). Details: CAKI-1, 48 h, read-out: Activity.
Assay type: functional

SMILES | growth at 10 µM [%]
O=Cc1ccc(C2NCCc3c2[nH]c2ccccc32)cc1 (stereo not given) | 72.4

These compounds were tested on A549 (assay: Growth inhibition of human A549/ATCC cells assessed as cell growth at 10^-5 M incubated for 48 hrs by sulforhodamine B assay relative to control). Details: A549, 48 h, read-out: Activity.
Assay type: functional

SMILES | growth at 10 µM [%]
O=Cc1ccc(C2NCCc3c2[nH]c2ccccc32)cc1 (stereo not given) | 94.7

What follows are compounds tested on M14 (assay: Growth inhibition of human M14 cells assessed as cell growth at 10^-5 M incubated for 48 hrs by sulforhodamine B assay relative to control). Details: M14, 48 h, read-out: Activity.
Assay type: functional

SMILES | growth at 10 µM [%]
O=Cc1ccc(C2NCCc3c2[nH]c2ccccc32)cc1 (stereo not given) | 89.5

What follows are compounds tested on KM12 (assay: Growth inhibition of human KM12 cells assessed as cell growth at 10^-5 M incubated for 48 hrs by sulforhodamine B assay relative to control). Details: KM12, 48 h, read-out: Activity.
Assay type: functional

SMILES | growth at 10 µM [%]
O=Cc1ccc(C2NCCc3c2[nH]c2ccccc32)cc1 (stereo not given) | 107

These compounds were tested on SNB-19 (assay: Growth inhibition of human SNB19 cells assessed as cell growth at 10^-5 M incubated for 48 hrs by sulforhodamine B assay relative to control). Details: SNB-19, 48 h, read-out: Activity.
Assay type: functional

SMILES | growth at 10 µM [%]
O=Cc1ccc(C2NCCc3c2[nH]c2ccccc32)cc1 (stereo not given) | 100

The compounds below were run on SF-268 (assay: Growth inhibition of human SF268 cells assessed as cell growth at 10^-5 M incubated for 48 hrs by sulforhodamine B assay relative to control). Details: SF-268, 48 h, read-out: Activity.
Assay type: functional

SMILES | growth at 10 µM [%]
O=Cc1ccc(C2NCCc3c2[nH]c2ccccc32)cc1 (stereo not given) | 101

Each compound was assayed on HOP-62 (assay: Growth inhibition of human HOP62 cells assessed as cell growth at 10^-5 M incubated for 48 hrs by sulforhodamine B assay relative to control). Details: HOP-62, 48 h, read-out: Activity.
Assay type: functional

SMILES | growth at 10 µM [%]
O=Cc1ccc(C2NCCc3c2[nH]c2ccccc32)cc1 (stereo not given) | 86.3

What follows are compounds tested on MDA-MB-231 (assay: Growth inhibition of human MDA-MB-231 cells assessed as cell growth at 10^-5 M incubated for 48 hrs by sulforhodamine B assay relative to control). Details: MDA-MB-231, 48 h, read-out: Activity.
Assay type: functional

SMILES | growth at 10 µM [%]
O=Cc1ccc(C2NCCc3c2[nH]c2ccccc32)cc1 (stereo not given) | 72.1

What follows are compounds tested on EKVX (assay: Growth inhibition of human EKVX cells assessed as cell growth at 10^-5 M incubated for 48 hrs by sulforhodamine B assay relative to control). Details: read-out: Activity.
Assay type: functional

SMILES | growth at 10 µM [%]
O=Cc1ccc(C2NCCc3c2[nH]c2ccccc32)cc1 (stereo not given) | 89.6

The compounds below were run on A498 (assay: Growth inhibition of human A498 cells assessed as cell growth at 10^-5 M incubated for 48 hrs by sulforhodamine B assay relative to control). Details: A498, 48 h, read-out: Activity.
Assay type: functional

SMILES | growth at 10 µM [%]
O=Cc1ccc(C2NCCc3c2[nH]c2ccccc32)cc1 (stereo not given) | 86.4

The compounds below were run on MCF7 (assay: Growth inhibition of human MCF7 cells assessed as cell growth at 10^-5 M incubated for 48 hrs by sulforhodamine B assay relative to control). Details: MCF7, 48 h, read-out: Activity.
Assay type: functional

SMILES | growth at 10 µM [%]
O=Cc1ccc(C2NCCc3c2[nH]c2ccccc32)cc1 (stereo not given) | 91.9

These compounds were tested on HCT-116 (assay: Growth inhibition of human HCT116 cells assessed as cell growth at 10^-5 M incubated for 48 hrs by sulforhodamine B assay relative to control). Details: HCT-116, 48 h, read-out: Activity.
Assay type: functional

SMILES | growth at 10 µM [%]
O=Cc1ccc(C2NCCc3c2[nH]c2ccccc32)cc1 (stereo not given) | 78.4

What follows are compounds tested on SF-539 (assay: Growth inhibition of human SF539 cells assessed as cell growth at 10^-5 M incubated for 48 hrs by sulforhodamine B assay relative to control). Details: SF-539, 48 h, read-out: Activity.
Assay type: functional

SMILES | growth at 10 µM [%]
O=Cc1ccc(C2NCCc3c2[nH]c2ccccc32)cc1 (stereo not given) | 103

What follows are compounds tested on SF-295 (assay: Growth inhibition of human SF295 cells assessed as cell growth at 10^-5 M incubated for 48 hrs by sulforhodamine B assay relative to control). Details: SF-295, 48 h, read-out: Activity.
Assay type: functional

SMILES | growth at 10 µM [%]
O=Cc1ccc(C2NCCc3c2[nH]c2ccccc32)cc1 (stereo not given) | 101

What follows are compounds tested on NCI-H460 (assay: Growth inhibition of human NCI-H460 cells assessed as cell growth at 10^-5 M incubated for 48 hrs by sulforhodamine B assay relative to control). Details: NCI-H460, 48 h, read-out: Activity.
Assay type: functional

SMILES | growth at 10 µM [%]
O=Cc1ccc(C2NCCc3c2[nH]c2ccccc32)cc1 (stereo not given) | 100

Each compound was assayed on OVCAR-8 (assay: Growth inhibition of human OVCAR8 cells assessed as cell growth at 10^-5 M incubated for 48 hrs by sulforhodamine B assay relative to control). Details: OVCAR-8, 48 h, read-out: Activity.
Assay type: functional

SMILES | growth at 10 µM [%]
O=Cc1ccc(C2NCCc3c2[nH]c2ccccc32)cc1 (stereo not given) | 105

What follows are compounds tested on SN12C (assay: Growth inhibition of human SN12C cells assessed as cell growth at 10^-5 M incubated for 48 hrs by sulforhodamine B assay relative to control). Details: read-out: Activity.
Assay type: functional

SMILES | growth at 10 µM [%]
O=Cc1ccc(C2NCCc3c2[nH]c2ccccc32)cc1 (stereo not given) | 89

The compounds below were run on RPMI-8226 (assay: Growth inhibition of human RPMI8226 cells assessed as cell growth at 10^-5 M incubated for 48 hrs by sulforhodamine B assay relative to control). Details: RPMI-8226, 48 h, read-out: Activity.
Assay type: functional

SMILES | growth at 10 µM [%]
O=Cc1ccc(C2NCCc3c2[nH]c2ccccc32)cc1 (stereo not given) | 101
